Columns and labels:
[1] = test system: monoclonal anti-methamphetamine antibody; test: Competitive inhibition ELISA (CELIA) on BSA-pseudoephedrine coated wells; assay type: binding, mouse; settings: for Detection by the competitive ELISA (in words): summary of Table 1
Procedure: The conjugate was evaluated using ELISA. 96-well microtitre plates (Costar) were coated with BSA-pseudoephedrine (5 :g/ml in 0.05 M sodium carbonate/bicarbonate buffer, pH 9.6, 100 :l/well) overnight at room temperature. […] Two fold dilutions of monoclonal anti-methamphetamine antibody (East coast Biological, USA) in wash buffer containing 10 mg/ml BSA (assay buffer) were added to the wells (100 :l/well) and the plate incubated at room temperature for 30 minutes. The wells were washed 3 times with wash buffer and horseradish peroxidase-labelled goat anti-mouse IgG antibody (product number A-4416, Sigma Co., Poole, England) was added to the wells (1/2000 dilution in assay buffer, 100 :l/well) and incubation continued for a further 30 minutes. […] After 30 minutes incubation, colour development was stopped by the addition of 1 M sulphuric acid (100 :l/well). Colour intensity was measured at 450 nm.
Competitive ELISA was then set up to evaluate the cross-reactivity of various drugs with methamphetamine. […] The designer ecstasy drugs MDMA and MBDB were well detected by this assay.

[2] = test system: gold-labelled mouse anti-methamphetamine antibody; test: Lateral flow immunochromatography test for methamphetamine/ecstasy in spiked oral fluid; settings: for Lateral flow test result: cut off set at ≧15 ng/ml (+)-methamphetamine; for Lateral flow test result (in words): Table 2, at the concentrations tested
[3] = compound at 10,000 ng/ml, read off (+)-methamphetamine or ecstasy standard curve
[4] = compound at 10,000 ng/ml in spiked saliva
[5] = compound at 15 ng/ml in spiked saliva, Cozart Rapiscan reader

| Compound | % Cross-reactivity ([1]; compound at 10,000 ng/ml) [%] | Concentration determined by ELISA [1, 3] [ng/mL] | Lateral flow test result [2, 4] | further results |
| --- | --- | --- | --- | --- |
| (−)-pseudoephedrine | 0.048 | 4.84 | negative |  |
| CC(N)Cc1ccccc1 (single isomer, unassigned; (+)) [(+)-amphetamine] | 0.379 | 37.97 | negative | % Cross-reactivity ([1]; compound at 10,000 ng/ml, listed as amphetamine): < 0.4% |
| (+)-methamphetamine [(+)- methylamphetamine] |  |  |  | Lateral flow test result (in words) [2]: picked up; Lateral flow test result [2, 5]: positive |
| CN(C)CCC(c1ccccc1)c1ccccn1 (stereo not drawn) [Pheniramine] |  |  | negative |  |
| CC(N)Cc1ccc2c(c1)OCO2 (stereo not drawn) [MDA, 3,4-methylenedioxyamphetamine] | 0.219 | 21.94 | negative |  |
| (+)-pseudoephedrine | 0.063 | 6.3 | negative |  |
| NCCc1ccc(O)cc1 [tyramine, 4-hydroxy-phenethylamine] | 0.03 | 3.72 | negative |  |
| CCNC(C)Cc1cccc(C(F)(F)F)c1 (stereo not drawn) [Fenfluramine] |  |  | negative |  |
| CCC(Cc1ccc2c(c1)OCO2)NC (racemic) [MBDB, (+/−)-N-methyl-1-(3,4-methylenedioxyphenyl)-2-butanamine] |  |  |  | % Cross-reactivity ([1]; compound at 25 ng/ml): 75.04%; Concentration determined by ELISA ([1]; compound at 25 ng/ml): 18.76 ng/mL; % Cross-reactivity ([1]; compound at 100 ng/ml): 66.43%; Concentration determined by ELISA ([1]; compound at 100 ng/ml): 66.43 ng/mL; % Cross-reactivity ([1]; compound at 500 ng/ml): 87.78%; Concentration determined by ELISA ([1]; compound at 500 ng/ml): 438.88 ng/mL; Detection by the competitive ELISA (in words) [1]: well detected; Lateral flow test result (in words) [2]: picked up; Lateral flow test result [2, 5]: positive |
| CNC(C)Cc1ccc2c(c1)OCO2 (stereo not drawn) [MDMA (Ecstasy), 3,4-methylenedioxymethamphetamine] |  |  |  | % Cross-reactivity ([1]; compound at 15 ng/ml): 55.0%; Concentration determined by ELISA ([1]; compound at 15 ng/ml): 8.26 ng/mL; % Cross-reactivity ([1]; compound at 50 ng/ml): 48.1%; Concentration determined by ELISA ([1]; compound at 50 ng/ml): 24.09 ng/mL; % Cross-reactivity ([1]; compound at 100 ng/ml): 53.19%; Concentration determined by ELISA ([1]; compound at 100 ng/ml): 53.19 ng/mL; Detection by the competitive ELISA (in words) [1]: well detected; Lateral flow test result (in words) [2]: picked up; Lateral flow test result ([2]; compound at 30 ng/ml in spiked saliva): positive |
| CNC1(c2ccccc2Cl)CCCCC1=O (stereo not drawn) [Ketamine] |  |  | negative |  |
| CN(C)CCC(c1ccc(Cl)cc1)c1ccccn1 (stereo not drawn) [Chlorpheniramine] |  |  | negative |  |
| CC(C)(N)Cc1ccccc1 [phentermine] |  |  |  | % Cross-reactivity ([1]; compound at 50,000 ng/ml): 0.009%; Concentration determined by ELISA ([1]; compound at 50,000 ng/ml): 4.67 ng/mL |
| CC(N)C(O)c1ccccc1 (stereo not drawn) [phenylpropanolamine] | 0.06 | 5.8 | negative |  |
| NCCc1ccccc1 [beta-phenylethylamine] | 0.25 | 25.6 | negative |  |
| CN[C@H](C)[C@@H](O)c1ccccc1 [(+)-ephedrine] | 0.08 | 8.37 | negative |  |
| CN[C@@H](C)[C@H](O)c1ccccc1 [(−)-ephedrine] | 0.05 | 5.05 | negative |  |
